Measured values reported in patent US20110269817A1, “COMPOSITIONS AND METHODS RELATED TO SIRT1 FUNCTION” (The Regents of the University of California, priority 2008, published 2011).

Tests used:
Nampt = Nampt (Homo sapiens, UniProt P43490); conditions: literature (ref. 30); cited from earlier work
[1] = system: Per2 and Dbp gene expression in MEFs; test: Per2 and Dbp gene expression in serum-entrained MEFs treated with FK866, q-PCR; type: cell-based, mouse; conditions: MEFs pretreated with 10 nM FK866, then serum-stimulated
Experimental: Each quantitative real-time RT-PCR was performed using the Chromo4 real time detection system (BIO-RAD). […] The reaction was first incubated at 95° C. for 3 min, followed by 40 cycles at 95° C. for 30 s and 60° C. for 1 min.

BMAL1 Lys537 acetylation = BMAL1 Lys537 acetylation profile in serum-entrained MEFs treated with FK866; type: cell-based, mouse; conditions: cultured MEFs
Experimental: This illustrates Nampt modulation of the circadian clock. Panel A depicts Pert and Dbp gene expression levels in serum-entrained MEFs treated with 10 nM FK866 or EtOH as control (solvent:ctrl) were analyzed by q-PCR. The highest value for each gene in EtOH treated MEFs was set to 1. All data presented are the means±SEM of three independent samples. […] Cell extracts prepared from indicated time points were processed to visualize BMAL1 acetylation using the anti-acetyl specific BMAL1 antibody as described herein. Input samples were probed with anti-BMAL1 and anti-GAPDH antibodies. Panel C is a schematic representation of the transcription-enzymatic interplay by which the circadian machinery governs the intracellular levels of NAD^+. The NAD^+-dependent deacetylase SIRT1 is thereby controlling the oscillatory synthesis of its own coenzyme.
NAMPT inhibitor “FK866” treatment experiments MEFs in growing phase (−50% confluent) were pre-treated with 10 nM FK866 dissolved in ethanol/serum-free DMEM 16 hr prior to high serum treatment. After 2 hr serum treatment, medium were changed to serum-free medium containing 10 nM FK866. […]

Nampt, sequence (P43490 whole entry): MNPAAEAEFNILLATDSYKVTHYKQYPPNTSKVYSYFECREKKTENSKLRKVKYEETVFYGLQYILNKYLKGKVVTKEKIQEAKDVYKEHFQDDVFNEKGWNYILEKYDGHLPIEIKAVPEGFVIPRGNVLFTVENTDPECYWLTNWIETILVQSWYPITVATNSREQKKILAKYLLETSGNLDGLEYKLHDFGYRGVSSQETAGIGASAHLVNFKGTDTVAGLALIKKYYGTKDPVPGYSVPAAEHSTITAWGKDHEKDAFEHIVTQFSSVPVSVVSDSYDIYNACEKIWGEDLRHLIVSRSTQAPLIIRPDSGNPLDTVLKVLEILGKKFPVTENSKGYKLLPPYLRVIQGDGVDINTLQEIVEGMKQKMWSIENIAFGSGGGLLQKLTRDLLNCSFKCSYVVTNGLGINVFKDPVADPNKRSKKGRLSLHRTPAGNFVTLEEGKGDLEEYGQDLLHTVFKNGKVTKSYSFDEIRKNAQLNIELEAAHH

O=C(/C=C/c1cccnc1)NCCCCC1CCN(C(=O)c2ccccc2)CC1 [FK866]
inhibition of Nampt enzymatic activity (Nampt): specifically inhibits Nampt enzymatic activity | increase of amplitude of oscillation (Per2 and Dbp), average [1]: 30-40% | onset of the circadian peak for both genes (Per2 and Dbp), earlier by [1]: 3 to 4 h | BMAL1 acetylation at K537 (BMAL1 Lys537 acetylation; 10 nM FK866): heavily increased and displays a broader peak | effect on BMAL1 protein levels (BMAL1 Lys537 acetylation; 10 nM FK866, any time of the circadian cycle): no major effect
